Our source for the Ki values is ChEMBL document CHEMBL1149172, “BREED: Generating novel inhibitors through hybridization of known ligands. Application to CDK2, p38, and HIV protease” (J Med Chem, 2004).

This test concerns the target Human immunodeficiency virus type 1 protease (Human immunodeficiency virus 1, UniProt Q72874). Put plainly: Inhibitory activity against HIV-I protease was determined.

Each structure is given as a SMILES string.

By Ki is commonly meant the equilibrium dissociation constant of an inhibitor or competing ligand from its target. A higher Ki goes with a looser hold on the target. For `CC(C)CN(C[C@@H](O)[C@H](Cc1ccccc1)NC(=O)[C@H](CC(N)=O)NC(=O)c1ccc2ccccc2n1)S(=O)(=O)N1ONc2ccccc21`, the affinity, expressed as Ki, was 0.1 nM.
For the compound `CC(C)CN(C[C@@H](O)[C@H](Cc1ccccc1)NC(=O)O[C@H]1CCOC1)S(=O)(=O)NC(C)(C)C`, the Ki was determined as 42 nM. This Ki is about 420-fold higher than that of the compound before.
